ChEMBL document CHEMBL1158319, “New protopine and benzyltetrahydroprotoberberine alkaloids from Aristolochia constricta and their activity on isolated guinea-pig ileum” (J Nat Prod, 1997)

Assays:
Assay type in all cases: functional, tissue-based
Settings in all cases: Cavia porcellus, 0.5 h
Ileum [1] = test: Antispasmodic activity in guinea pig ileum assessed as inhibition of acetylcholine-induced tissue contraction after 30 mins
Ileum [2] = test: Antispasmodic activity in guinea pig ileum assessed as inhibition of electrically-induced tissue contraction after 30 mins
Ileum [3] = test: Antispasmodic activity in guinea pig ileum assessed as inhibition of histamine-induced tissue contraction after 30 mins

| Structure (SMILES) | IC50 (Ileum [1]) | IC50 (Ileum [2]) | IC50 (Ileum [3]) |
| --- | --- | --- | --- |
| O=C1Cc2ccc(O)cc2/C=N/C=C\c2cc(O)ccc21 [CONSTRICTOSINE] | 75 µM | 66 µM | 51 µM |
| O=C1Cc2ccc(O)cc2/C=N/CCc2cc(O)ccc21 | 26 µM | 21 µM | 26 µM |

Other lines, results leading:

| IC50 (Ileum [1]) | IC50 (Ileum [2]) | IC50 (Ileum [3]) | Structure (SMILES) |
| --- | --- | --- | --- |
| 85 µM | 86 µM | 59 µM | COc1ccc2c(c1)/C=C\N=C\c1cc(O)ccc1CC2=O |
| 20 µM | 19 µM | 22 µM | COc1ccc2c(c1)/C=N/CCc1cc(OC)ccc1C(=O)C2 |
| 58 µM | 66 µM | 68 µM | COc1ccc2c(c1)/C=C\N=C\c1cc(OC)ccc1CC2=O |
